This is an account of results in patent publication US20250114460A1, “NOVEL PLK1 DEGRADATION INDUCING COMPOUND” (UPPTHERA, INC., priority 2021, published 2025).

The term IC50 denotes the point on the concentration scale where inhibition reaches its midpoint.

Each structure is given as a SMILES string.

Holding throughout (type): cell-based
In one test the test system is NCI-H526 cell line. The test is described as follows: Cell viability assay for H526 cell (EZ-Cytox). The settings on record: Homo sapiens, NCI-H526, 120 h; H526 cells, 5 days, 3000 nM to 0.46 nM. In short, it runs like this: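 NCI-H526 cells were exposed to compound in CO2 incubator culture for 5 days. Viability was read by EZ-Cytox absorbance at 450 nm after 3 min shaking, giving IC50 values.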

The next test has as its target T1, PLK1 (Homo sapiens, UniProt P53350).
T1 construct: endogenous in cells; host or cells: HeLa LgBit (Plk1-HiBit KI): HeLa stably expressing LgBit, with a CRISPR/Cas9 knock-in of HiBit at the endogenous PLK1 locus
Kind of test: Luciferase assay for PLK1 in HeLa LgBit (Plk1-HiBit KI) cell line. To be noted: 300 nM compound, luminescence after 9 hours. In short, it runs like this: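 HeLa cells stably expressing LgBit, with HiBit knocked in at the C-terminus of endogenous Plk1, released from a 24 h 2 mM thymidine block and grown 18 h. Endurazine added, then compound at 300 nM; luminescence tracked in real time, expressed as ratio to DMSO.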
A general note: HiBiT is a short tag that completes a luciferase, so light tracks the accessible tagged protein.

Another test has as its system MRC-5 cell line. The test is described as follows: Cell viability assay for MRC-5 cell line (EZ-Cytox). The settings on record: Homo sapiens, MRC5, 120 h; MRC-5 normal cell line, 5 days, 10000 nM to 1.52 nM; N.D. = no cytotoxicity until 10 μM; read-out: Activity: IC50 value of Exemplary Compound to MRC-5 cell line. The procedure: 4. Cell Viability Assay for MRC-5 Cell Line
(1) Culture of MRC-5 Cell Line
Passage of cultured cells was maintained within P15.
(2) Treatment of Compounds of the Present Invention
Then, it was cultured in 37° C.
(3) Cytotoxicity Experiment
CO2 incubator for 4 hours.

T1 sequence (P53350 whole entry): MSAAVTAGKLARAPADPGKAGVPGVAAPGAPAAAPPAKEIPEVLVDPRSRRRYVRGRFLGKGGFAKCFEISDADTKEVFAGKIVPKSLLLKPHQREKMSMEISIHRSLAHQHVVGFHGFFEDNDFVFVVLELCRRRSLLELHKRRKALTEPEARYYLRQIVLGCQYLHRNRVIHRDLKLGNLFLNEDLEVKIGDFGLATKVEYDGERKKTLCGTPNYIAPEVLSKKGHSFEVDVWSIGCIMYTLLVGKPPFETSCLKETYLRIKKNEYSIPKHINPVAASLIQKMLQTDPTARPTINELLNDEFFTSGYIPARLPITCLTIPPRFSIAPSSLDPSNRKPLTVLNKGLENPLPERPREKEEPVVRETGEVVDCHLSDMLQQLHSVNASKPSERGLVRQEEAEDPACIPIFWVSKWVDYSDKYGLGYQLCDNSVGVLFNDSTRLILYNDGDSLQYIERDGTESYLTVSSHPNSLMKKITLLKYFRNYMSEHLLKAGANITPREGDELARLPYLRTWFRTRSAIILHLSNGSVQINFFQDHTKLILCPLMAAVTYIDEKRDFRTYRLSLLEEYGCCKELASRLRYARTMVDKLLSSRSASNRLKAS

As for `COc1cc(C(=O)NN2CCC(CN3CCN(c4cccc5c4C(=O)N(C4CCC(=O)NC4=O)C5=O)CC3)C(F)(F)C2)ccc1Nc1ncc2c(n1)N(C(C)C)CC(F)(F)C(=O)N2C` (stereo not drawn) [Compound 157, 4-((7,7-difluoro-9-isopropyl-5-methyl-6-oxo-6,7,8,9-tetrahydro-5H-pyrimido[4,5-b][1,4]diazepin-2-yl)amino)-N-(4-((4-(2-(2,6-dioxopiperidin-3-yl)-1,3-dioxoisoindolin-4-yl)piperazin-1-yl)methyl)-3,3-difluoropiperidin-1-yl)-3-methoxybenzamide], the values for the half-inhibitory concentration (IC50) with NCI-H526 cell line and with MRC-5 cell line were under 0.1 µM and over 10 µM, respectively. Also, the “Activity: ratio of the luminescense value of each Exemplary Compound treatment group to DMSO treatment group” value (“Activity: ratio” for short) at PLK1 is “++ (++<0.6)”.
In the case of `COc1cc(C(=O)NN2CCC(CN3CCN(c4cccc5c4CN(C4CCC(=O)NC4=O)C5=O)CC3)C(F)(F)C2)ccc1Nc1ncc2c(n1)N(C(C)C)CC(F)(F)C(=O)N2C` (stereo not drawn) [Compound 158, 4-((7,7-difluoro-9-isopropyl-5-methyl-6-oxo-6,7,8,9-tetrahydro-5H-pyrimido[4,5-b][1,4]diazepin-2-yl)amino)-N-(4-((4-(2-(2,6-dioxopiperidin-3-yl)-1-oxoisoindolin-4-yl)piperazin-1-yl)methyl)-3,3-difluoropiperidin-1-yl)-3-methoxybenzamide], the values for the IC50 in the test with NCI-H526 cell line and in the test on MRC-5 cell line were under 0.05 µM and 39.3 µM, respectively. Besides, the “Activity: ratio” value on PLK1 is recorded as “+++ (+++: <0.3)”.
In the same order, the values of `COc1cc(C(=O)NN2CC(N3CCN(c4ccc5c(c4)C(=O)N(C4CCC(=O)NC4=O)C5=O)CC3)C2)ccc1Nc1ncc2c(n1)N(C(C)C)CC(F)(F)C(=O)N2C` (stereo not drawn) [Compound 159, 4-((7,7-difluoro-9-isopropyl-5-methyl-6-oxo-6,7,8,9-tetrahydro-5H-pyrimido[4,5-b][1,4]diazepin-2-yl)amino)-N-(3-(4-(2-(2,6-dioxopiperidin-3-yl)-1,3-dioxoisoindolin-5-yl)piperazin-1-yl)azetidin-1-yl)-3-methoxybenzamide] are under 0.03 µM, 4.91 µM and “++ (++<0.6)”.
With `COc1cc(C(=O)NN2CC(CN3CCN(c4cccc5c4C(=O)N(C4CCC(=O)NC4=O)C5=O)CC3)C2)ccc1Nc1ncc2c(n1)N(C(C)C)CC(F)(F)C(=O)N2C` (stereo not drawn) [Compound 161, 4-((7,7-difluoro-9-isopropyl-5-methyl-6-oxo-6,7,8,9-tetrahydro-5H-pyrimido[4,5-b][1,4]diazepin-2-yl)amino)-N-(3-((4-(2-(2,6-dioxopiperidin-3-yl)-1,3-dioxoisoindolin-4-yl)piperazin-1-yl)methyl)azetidin-1-yl)-3-methoxybenzamide], the half-maximal inhibitory concentration (IC50) in the test with NCI-H526 cell line is under 0.03 µM; with MRC-5 cell line, over 10 µM. At PLK1, the “Activity: ratio” value is given as “++ (++<0.6)”.
`COc1cc(C(=O)NC2CCN(CC3CN(c4cc5c(cc4F)C(=O)N(C4CCC(=O)NC4=O)C5=O)C3)CC2)ccc1Nc1ncc2c(n1)N(C(C)C)CC(F)(F)C(=O)N2C` (stereo not drawn) [Compound 162, 4-((7,7-difluoro-9-isopropyl-5-methyl-6-oxo-6,7,8,9-tetrahydro-5H-pyrimido[4,5-b][1,4]diazepin-2-yl)amino)-N-(1-((1-(2-(2,6-dioxopiperidin-3-yl)-6-fluoro-1,3-dioxoisoindolin-5-yl)azetidin-3-yl)methyl)piperidin-4-yl)-3-methoxybenzamide]: the IC50 was under 0.1 µM with NCI-H526 cell line and over 10 µM in the test on MRC-5 cell line. The “Activity: ratio” value on PLK1 was “++ (++<0.6)”.
As to `COc1cc(C(=O)NC2CC(N(C)C3CCN(c4cccc5c4C(=O)N(C4CCC(=O)NC4=O)C5=O)CC3)C2)ccc1Nc1ncc2c(n1)N(C(C)C)CC(F)(F)C(=O)N2C` (stereo not drawn) [Compound 164, 4-((7,7-difluoro-9-isopropyl-5-methyl-6-oxo-6,7,8,9-tetrahydro-5H-pyrimido[4,5-b][1,4]diazepin-2-yl)amino)-N-(3-((1-(2-(2,6-dioxopiperidin-3-yl)-1,3-dioxoisoindolin-4-yl)piperidin-4-yl)(methyl)amino)cyclobutyl)-3-methoxybenzamide], the half-maximal inhibitory concentration (IC50) in the test on NCI-H526 cell line is under 0.03 µM; in the test on MRC-5 cell line, over 10 µM. Besides, the “Activity: ratio” value at PLK1 is given as “++ (++<0.6)”.
`COc1cc(C(=O)NC2CCC(N(C)C3CCN(c4cccc5c4C(=O)N(C4CCC(=O)NC4=O)C5=O)CC3)C2)ccc1Nc1ncc2c(n1)N(C(C)C)CC(F)(F)C(=O)N2C` (stereo not drawn) [Compound 165, 4-((7,7-difluoro-9-isopropyl-5-methyl-6-oxo-6,7,8,9-tetrahydro-5H-pyrimido[4,5-b][1,4]diazepin-2-yl)amino)-N-(3-((1-(2-(2,6-dioxopiperidin-3-yl)-1,3-dioxoisoindolin-4-yl)piperidin-4-yl)(methyl)amino)cyclopentyl)-3-methoxybenzamide]: the IC50 in the test on NCI-H526 cell line is under 0.03 µM; in the test with MRC-5 cell line, over 10 µM. Also, the “Activity: ratio” value at PLK1 is “++ (++<0.6)”.
In the case of `COc1cc(C(=O)NN2CCN(C3CCN(c4cccc5c4C(=O)N(C4CCC(=O)NC4=O)C5=O)CC3(F)F)CC2)ccc1Nc1ncc2c(n1)N(C(C)C)CC(F)(F)C(=O)N2C` (stereo not drawn) [Compound 167, 4-((7,7-difluoro-9-isopropyl-5-methyl-6-oxo-6,7,8,9-tetrahydro-5H-pyrimido[4,5-b][1,4]diazepin-2-yl)amino)-N-(4-(1-(2-(2,6-dioxopiperidin-3-yl)-1,3-dioxoisoindolin-4-yl)-3,3-difluoropiperidin-4-yl)piperazin-1-yl)-3-methoxybenzamide], the half-maximal inhibitory concentration (IC50) is under 0.03 µM in the test on NCI-H526 cell line and over 10 µM in the test with MRC-5 cell line. Besides, the “Activity: ratio” value on PLK1 is reported as “+++ (+++: <0.3)”.
As to `COc1cc(C(=O)N[C@H]2CC[C@H](N3CCN(CCOCCNc4cccc5c4C(=O)N(C4CCC(=O)NC4=O)C5=O)CC3)CC2)ccc1Nc1ncc2c(n1)N(C1CCCC1)CC(F)(F)C(=O)N2C` (stereo partly drawn) [Compound 194, 4-((9-cyclopentyl-7,7-difluoro-5-methyl-6-oxo-6,7,8,9-tetrahydro-5H-pyrimido[4,5-b][1,4]diazepin-2-yl)amino)-N-((1r,4r)-4-(4-(2-(2-((2-(2,6-dioxopiperidin-3-yl)-1,3-dioxoisoindolin-4-yl)amino)ethoxy)ethyl)piperazin-1-yl)cyclohexyl)-3-methoxybenzamide], the IC50 with NCI-H526 cell line was under 0.05 µM; in the test with MRC-5 cell line, over 10 µM. Further, the “Activity: ratio” value at PLK1 was “++ (++<0.6)”.
In the same order, the values of `COc1cc(C(=O)N[C@H]2CC[C@H](N3CCN(CCCNc4cccc5c4C(=O)N(C4CCC(=O)NC4=O)C5=O)CC3)CC2)c(F)cc1Nc1ncc2c(n1)N(C1CCCC1)CC(F)(F)C(=O)N2C` (stereo partly drawn) [Compound 197, 4-((9-cyclopentyl-7,7-difluoro-5-methyl-6-oxo-6,7,8,9-tetrahydro-5H-pyrimido[4,5-b][1,4]diazepin-2-yl)amino)-N-((1r,4r)-4-(4-(3-((2-(2,6-dioxopiperidin-3-yl)-1,3-dioxoisoindolin-4-yl)amino)propyl)piperazin-1-yl)cyclohexyl)-2-fluoro-5-methoxybenzamide] are under 0.05 µM, 18 µM and “++ (++<0.6)”.
